Measurements reported in US10343971B2, “Crotonates having use in perfumery” (GIVAUDAN SA, priority 2016, dated 2019).

How the values were obtained:
[1] = Enzymatic hydrolysis (stability) in human liver S9 fractions; assay type: in vitro ADME; conditions: 100 μM compound, human liver S9 0.166 mg/ml, phosphate buffer pH 7.4, active S9 fractions
Protocol: Enzymes of the nasal cavity are not easily available, but the nasal cavity contains similar enzymatic activities as found in the liver, namely carboxylesterases (J. L. Lewis, K. J. Nikula, R. Novak, A. R. Dahl, Anat Rec 1994, 239). Therefore the different compounds of examples 1-3 were compared for enzymatic hydrolysis using human liver […]. Chemicals were dissolved to a final concentration of 100 μM in a total volume of 600 μl of phosphate buffer (100 mM, pH 7.4, containing 1.15% potassium chloride and 1 mM of EDTA). S9 fractions from humans at a final level of 0.166 mg/ml were added (Corning® Gentest™ Human Liver S9 Pooled Donors, 20 mg/mL protein content, Product #452961;), Lot 22877,). As control experiment, equal levels of heat inactivated S9 fractions (incubated for 10 min at 99° C.) were added to parallel samples. The samples were incubated for different time periods and then mixed in 2 ml glass vials with 300 μl of Methyl-tert-butylether (MTBE) containing as internal standard 1 ppm of dodecane. Samples were extracted on a vortex mixer for 20 s, and then ca. 200 μl of the supernatant was transferred to conical GC vials and concentrated under a stream of nitrogen. 1 μl of these concentrated extracts were then injected with a splitless injection into an Agilent GC 6890N gas chromatograph equipped with a flame-ionisation detector. The following GC conditions were applied: Column: Rtx −5; 30 m length×0.32 mm internal diameter×0.25 μm film thickness; Carrier gas: Hydrogen; Column flow: 2 mL; Initial temperature of 60° C. held for 2 min, subsequent linear gradient with 10° C. per minute up to a temperature of 240° C. […] To determine calibration curves, dilutions of the test chemicals or of the potentially released alcohols were added to heat inactivated S9 fraction and extracted, concentrated and analysed as described above. All concentrations (in test samples and calibration curves) were determined by normalization to the internal standard. […]

[2] = test system: KeratinoSens cell line (Luciferase gene under the control of the ARE-element of the gene AKR1C2); assay: KeratinoSens assay for skin sensitization: luciferase gene induction; assay type: cell-based; conditions: for Concentration for 1.5-fold gene induction (EC 1.5 in μM) / Imax (fold maximal gene induction): 48 h incubation, 0.98 to 2000 μM; for Imax (fold maximal gene induction): threshold 1.5-fold; for rating of skin sensitization by the KeratinoSens assay: result in words
Protocol: Compounds were tested using the commercial KeratinoSens™ assay for skin sensitization.
(§1) The KeratinoSens™ test compares the potential skin sensitization risk of chemicals. The KeratinoSens™ cell line contains a stable insertion of a Luciferase gene under the control of the ARE-element of the gene AKR1C2 and induction of luciferase is indicative of skin sensitization potential (R. Emter, G. Ellis, A. Natsch, Toxicol. Appl. Pharmacol. 2010, 245, 281-290). The assay was performed as described by the OECD test guideline 442d. KeratinoSens cells were grown for 24 h in 96-well plates. The medium was then replaced with medium containing the test chemical and the solvent dimethylsulfoxide (DMSO) at a final level of 1%. Each compound was tested at 12 binary dilutions in the range from 0.98 to 2000 μM. Cells were incubated for 48 h with the test agents, and then luciferase activity and cytotoxicity were determined. This full procedure was repeated three times for each chemical. For each chemical in each repetition and at each concentration, the gene induction compared to DMSO controls and the wells with statistically significant induction over the threshold of 1.5 (i.e. 50% enhanced gene activity) were determined. Furthermore, the maximal fold-induction (Imax) and the EC1.5 value (concentration in μM for induction above the threshold) were calculated. Chemicals are rated as positive (i.e. likely skin-sensitizers) in the assay if the following three criteria are fulfilled:
(i) EC1.5 value is below 1000 μM.
(ii) At the lowest concentration with a gene induction above 1.5 fold, the cellular viability is above 70%.
(iii) There is an apparent overall dose-response for luciferase induction, which is similar between the repetitions.

[3] = KeratinoSens assay: cytotoxicity / cellular viability; assay type: cell-based; conditions: human; 48 h incubation; read-out: Concentration for 50% Cytotoxicity
Protocol: as §1, with “fulfilled: […]” for “fulfilled:”

[4] = test system: test peptide Cor1C-420 (Ac-NKKCDLF); assay: Peptide reactivity assay (kinetic variant of DPRA, LC-MS); conditions: 1 mM test chemical, 0.1 mM peptide, 37° C.
Protocol: A second method to determine allergenic potential of chemicals is the DPRA direct peptide assay (OECD TG 442c). It is based on the fact that allergenic chemicals must react with a peptide/protein in order to be immunogenic.
A peptide reactivity assay (A. Natsch, H. Gfeller, Toxicol. Sci. 2008, 106, 464-478) was conducted similarly to the DPRA assay, but including a kinetic measurement to quantify reactivity: The test chemicals were dissolved to a final concentration of 4 mM in acetonitrile and 250 μl of this solution were added to 2 ml HPLC vials. The test peptide Cor1C-420 with the sequence Ac-NKKCDLF (Genscript Inc., Piscataway, N.J., USA), was dissolved at 0.133 mM in 20 mM phosphate buffer at pH 7.5, and 750 μl of this solution were added to each test vial (final concentrations: 1 mM of test chemical and 0.1 mM of peptide in 25% acetonitrile; ratio 1:10 as in the DPRA assay). The samples were incubated for 1-24 h at 37° C. and at regular intervals they were analysed by LC-MS analysis on a VELOS PRO Mass spectrometer (Thermo SCIENTIFIC, San Jose, Calif., U.S.A.) operated in the ESI(+) mode.
Mass spectra were recorded from 200-2000 amu. […]
Two endpoints are measured with this assay:
a) Depletion of the parent peptide (FIG. 3): The mass of the protonated parent peptide is measured and the corresponding peak integrated (% depletion). […]

[5] = test system: KeratinoSens cells; assay: KeratinoSens assay: cytotoxicity / cellular viability; assay type: cell-based; conditions: 48 h incubation; read-out: Concentration for 50% Cytotoxicity
Protocol: as §1, with “fulfilled: […]” for “fulfilled:”

SMILES | cleavage (enzymatic hydrolysis of the ester) by active S9 fractions [1] | Concentration for 1.5-fold gene induction (EC 1.5 in μM) [2] | Imax (fold maximal gene induction) [2] [fold] | IC50 at 48 h [3] [µM] | rating of skin sensitization by the KeratinoSens assay [2] | peptide depletion (consumption of the parent peptide as compared to controls) ([4]; 1-24 h) [%] | lower levels of peptide adducts as compared to Damascone Delta and Damascone gamma ([4]; after 1 h) | concentration at which the luciferase gene is induced [2] [µM] | IC50 [5] [µM]
C/C=C/C(=O)OC1[C@H](C)CCC[C@H]1C (relative stereo) [Example 2, (2R*,6R*)-2,6-dimethylcyclohexyl (E)-but-2-enoate] | completely hydrolysed |  |  |  |  |  |  |  | 
C/C=C/C(=O)O[C@H]1[C@@H](C)C=CCC1(C)C (relative stereo) [Example 6a, (1S*,2S*)-2,6,6-Trimethylcyclohex-3-en-1-yl (E)-but-2-enoate] |  | No induction | 1.13 | 89.4 |  |  |  |  | 
C/C=C/C(=O)O[C@@H]1[C@H](C)CCC[C@@H]1C [Example 1, (1s*,2R*,6S*)-2,6-dimethylcyclohexyl (E)-but-2-enoate] | < 3% | No induction |  | 86.9 | non-sensitizing | < 10 | > 100 |  | 
C/C=C/C(=O)O[C@H]1[C@H](C)CCC[C@@H]1C [Example 3, (1r*,2R*,6S*)-2,6-dimethylcyclohexyl (E)-but-2-enoate] | 15% |  |  |  |  |  |  |  | 
C/C=C/C(=O)C1=C(C)CCCC1(C)C [β-Damascone, (2E)-1-(2′,6′,6′-trimethylcyclohex-1′-en-1′-yl)but-2-en-1-one, reference compound] |  | 4.5 µM | 29.8 |  | significantly sensitizing compound |  |  | 4.5 | 56.7
